System: TNF-α production in LPS-stimulated RAW264.7 cells
Test: Cytokine production assay (ELISA), TNF-α
Type: cell-based, mouse
Method: RAW264.7 cells were seeded at 3 × 10^5 cells/well in a 48-well microplate and incubated overnight.The cells were pre-treated with the different concentrations of the test compunds (3, 7.5, 10 or 30 µM) for 30 min before the stimulation with LPS (1 µg/mL). According to the protocol of the manufacturer, supernatants were harvested at the 24th hour for the assay of TNF-α or IL-6 with ELISA kits (BD Biosciences, San Diego, CA, USA). Briefly, 100 µL of biotinylated antibody reagent and the culture supernatants were added to anti-mouse TNF-α or IL-6 precoated 96-well plates, and the plates were incubated for 2 h at RT. The plate was washed with a washing buffer and subsequently incubated with 100 µL of the streptavidin-HRP solution for 1 h at RT. The plate was washed, and incubated with 100 µL of TMB substrate solution for 30 min at RT in the dark. The reaction was stopped by adding 50 µL of stop solution, and then the absorbance was measured at 450 nm by a plate reader. A standard curve was produced for each assay plate using serially diluted recombinant IL-6.

`COc1cc(Cn2c(=O)c3nnc(C(N)=O)n3c3ccccc32)cc(OC)c1OC` [6p, 5-(3,4,5-trimethoxybenzyl)-4-oxo-4,5-dihydro-[1,2, 4]triazolo[4,3-a]quinoxaline-1-carboxamide] was tested, and the “production of TNF-α” value (3 µM, p < .001) was “significantly inhibited” and the “LPS-induced increase in TNF-α levels” value (LPS 1 µg/mL, 24 h, different concentrations) was “inhibited in a concentration-dependent manner”.
